≈ marks a conversion by molar mass, not a printed value. Where “and” joins values, the source holds several entries; their conditions need not be identical. Equal values may be shown once.

Holding throughout (format): functional
The subject of assay [1] is Haemophilus influenzae. In words: Antimicrobial activity against Haemophilus influenzae.
The test system of assay [2] is Staphylococcus aureus. In words: Antimicrobial activity against Staphylococcus aureus A8727.
In a further assay the test system is Chlamydia trachomatis. Nature of the assay: Antimicrobial activity against Chlamydia trachomatis isolated from human respiratory tract by broth microdilution method.
For assay [3], the system named is Staphylococcus aureus. Nature of the assay: Antimicrobial activity against Staphylococcus aureus A8761.
A further assay concerns Legionella pneumophila. Nature of the assay: Antimicrobial activity against Legionella pneumophila isolated from human respiratory tract by broth microdilution method.
In assay [4] the test system is Enterococcus faecalis. In words: Antimicrobial activity against Enterococcus faecalis ATCC 29212-P5 harboring G2576U mutation in 23S rRNA.
The test system of assay [5] is Enterococcus faecium. Nature of the assay: Antimicrobial activity against Enterococcus faecium A9621 by broth microdilution method.
For assay [6], the system named is Haemophilus influenzae. In words: Antimicrobial activity against Haemophilus influenzae 54A1100.
The subject of another assay is Staphylococcus capitis. In words: Antimicrobial activity against Staphylococcus capitis A8935.
The test system of a further assay is Streptococcus pneumoniae. In words: Antimicrobial activity against Streptococcus pneumoniae 02J1175.
The test system of assay [7] is Enterococcus faecalis. Nature of the assay: Antimicrobial activity against Enterococcus faecalis A6343.
Assay [8] has as its system Enterococcus faecium. Nature of the assay: Antimicrobial activity against Enterococcus faecium A6348 harboring G2576U mutation in 23S rRNA.
The test system of assay [9] is Enterococcus faecium. Nature of the assay: Antimicrobial activity against Enterococcus faecium A6349 harboring G2576U mutation in 23S rRNA.
Assay [10] deals with Staphylococcus aureus. In words: Antimicrobial activity against Staphylococcus aureus A8831 harboring U2500A mutation in 23S rRNA.
In assay [11] the test system is Staphylococcus aureus. Nature of the assay: Antimicrobial activity against Staphylococcus aureus pLXM1 harboring cfr gene.
The test system of another assay is Staphylococcus hominis. Nature of the assay: Antimicrobial activity against Staphylococcus hominis A7828.
The test system of assay [12] is Enterococcus faecium. In words: Antimicrobial activity against Enterococcus faecium A6345.
Assay [13] relates to Staphylococcus aureus. In words: Antimicrobial activity against Staphylococcus aureus A7817.
Assay [14] has as its system Enterococcus faecium. In words: Antimicrobial activity against Enterococcus faecium A9650.
The next assay relates to Chlamydia pneumoniae. In words: Antimicrobial activity against Chlamydophila pneumoniae isolated from human respiratory tract by broth microdilution method.
The test system of assay [15] is Enterococcus faecium. In words: Antimicrobial activity against Enterococcus faecium A8948.
The subject of assay [16] is Streptococcus pyogenes. In words: Antimicrobial activity against Streptococcus pyogenes harboring mef(A) gene.
Assay [17] relates to Staphylococcus aureus. In words: Antimicrobial activity against Staphylococcus aureus A7820.
Assay [18] has as its system Enterococcus faecium. Nature of the assay: Antimicrobial activity against Enterococcus faecium A8767.
In assay [19] the test system is Enterococcus faecium. In words: Antimicrobial activity against Enterococcus faecium A6349.
The subject of assay [20] is Enterococcus faecium. Nature of the assay: Antimicrobial activity against Enterococcus faecium A5960.
For assay [21], the system named is Enterococcus faecium. In words: Antimicrobial activity against vancomycin-resistant Enterococcus faecium nosocomial isolate.
For assay [22], the system named is Haemophilus influenzae. Nature of the assay: Antimicrobial activity against Haemophilus influenzae A1950.
Assay [23] deals with Staphylococcus epidermidis. Nature of the assay: Antimicrobial activity against Staphylococcus epidermidis A8934.
Assay [24] deals with Enterococcus faecium. In words: Antimicrobial activity against Enterococcus faecium A8130.
Assay [25] deals with Enterococcus faecium. In words: Antimicrobial activity against Enterococcus faecium A5959.
The subject of assay [26] is Enterococcus faecium. In words: Antimicrobial activity against vancomycin-susceptible Enterococcus faecium nosocomial isolate by broth microdilution method.
In assay [27] the test system is Staphylococcus aureus. In words: Antimicrobial activity against Staphylococcus aureus A7819 harboring G2576U mutation in 23S rRNA.
Assay [28] relates to Staphylococcus aureus. In words: Antimicrobial activity against Staphylococcus aureus A8833 harboring U2500A mutation in 23S rRNA.
In assay [29] the test system is Streptococcus pyogenes. In words: Antimicrobial activity against Streptococcus pyogenes.
Assay [30] relates to Enterococcus faecalis. In words: Antimicrobial activity against Enterococcus faecalis A7789.
Assay [31] deals with Enterococcus faecalis. In words: Antimicrobial activity against Enterococcus faecalis A5962.
Where [32] appears, read: Streptococcus pyogenes, read-out: MIC.
[33] abbreviates: Enterococcus faecium, read-out: MIC.

In the case of `C[C@H]1COc2c(N3CCN(C)CC3)c(F)cc3c(=O)c(C(=O)O)cn1c23.C[C@H]1COc2c(N3CCN(C)CC3)c(F)cc3c(=O)c(C(=O)O)cn1c23.O` [LEVOFLOXACIN], the MIC is 0.016 µg/mL in the assay on Haemophilus influenzae [1] and 0.008 µg/mL in the assay with Haemophilus influenzae [1] (Haemophilus influenzae, read-out: MIC).

`CC(=O)NC[C@H]1CN(c2ccc(N3CCOCC3)c(F)c2)C(=O)O1` [LINEZOLID]: the MIC against Staphylococcus aureus [2] came to 8 µg/mL (≈ 23.7 µM); against Chlamydia trachomatis, 16 µg/mL (≈ 47.4 µM); in the assay with Chlamydia trachomatis (Chlamydia trachomatis, read-out: MIC) it was 8 µg/mL (≈ 23.7 µM); against Staphylococcus aureus [3], 16 µg/mL (≈ 47.4 µM); against Legionella pneumophila it was 8 µg/mL (≈ 23.7 µM); in the assay on Legionella pneumophila (Legionella pneumophila, read-out: MIC), 4 µg/mL (≈ 11.9 µM). For the same compound, the MIC against Enterococcus faecalis [4] amounted to 32 µg/mL (≈ 94.9 µM); in the assay with Enterococcus faecium [5], 64 µg/mL (≈ 190 µM); in the assay with Haemophilus influenzae [6] it was 16 µg/mL (≈ 47.4 µM); in the assay on Staphylococcus capitis, 16 µg/mL (≈ 47.4 µM); in the assay on Streptococcus pneumoniae, 0.25 µg/mL (≈ 0.741 µM); in the assay with Enterococcus faecalis [7] it was 32 µg/mL (≈ 94.9 µM). Further, the MIC with Enterococcus faecium [8] was 64 µg/mL (≈ 190 µM); against Enterococcus faecium [9] it was 16 µg/mL (≈ 47.4 µM); against Staphylococcus aureus [10], 128 µg/mL (≈ 379 µM); in the assay with Staphylococcus aureus [11], 8 µg/mL (≈ 23.7 µM); in the assay with Staphylococcus hominis, 64 µg/mL (≈ 190 µM); in the assay on Enterococcus faecium [12], 32 µg/mL (≈ 94.9 µM). In addition, the MIC was 64 µg/mL (≈ 190 µM) in the assay with Staphylococcus aureus [13]; 16 µg/mL (≈ 47.4 µM) against Enterococcus faecium [14]; 1 µg/mL (≈ 2.96 µM) in the assay on Chlamydia pneumoniae; 8 µg/mL (≈ 23.7 µM) against Enterococcus faecium [15]; 2 µg/mL and 4 µg/mL in the assay with Streptococcus pyogenes [16]; 2 µg/mL (≈ 5.93 µM) in the assay with Streptococcus pyogenes [16] (setting [32]). In addition, the MIC against Staphylococcus aureus [17] turned out to be 64 µg/mL (≈ 190 µM); against Enterococcus faecium [18], 8 µg/mL (≈ 23.7 µM); against Enterococcus faecium [19], 16 µg/mL (≈ 47.4 µM); against Enterococcus faecium [20], 64 µg/mL (≈ 190 µM); against Enterococcus faecium [21], 4 µg/mL (≈ 11.9 µM); in the assay with Enterococcus faecium [21] (setting [33]) it was 2 µg/mL (≈ 5.93 µM). The MIC against Haemophilus influenzae [22] was 16 µg/mL (≈ 47.4 µM); in assay [23] it was 32 µg/mL (≈ 94.9 µM); in the assay with Enterococcus faecium [24], 32 µg/mL (≈ 94.9 µM); in the assay with Enterococcus faecium [25], 32 µg/mL (≈ 94.9 µM); against Enterococcus faecium [26] it was 8 µg/mL (≈ 23.7 µM); in the assay on Enterococcus faecium [26] (setting [33]), 4 µg/mL (≈ 11.9 µM). Also, the MIC is 64 µg/mL (≈ 190 µM) against Staphylococcus aureus [27]; 64 µg/mL (≈ 190 µM) in the assay with Staphylococcus aureus [28]; 2 µg/mL and 4 µg/mL against Streptococcus pyogenes [29]; 2 µg/mL (≈ 5.93 µM) in the assay on Streptococcus pyogenes [29] (setting [32]); 64 µg/mL (≈ 190 µM) against Enterococcus faecalis [30]; 32 µg/mL (≈ 94.9 µM) against Enterococcus faecalis [31].

For the origin of these results see ChEMBL document CHEMBL1255340, “In vitro activities of the Rx-01 oxazolidinones against hospital and community pathogens” (2008).
